Data on 10 compounds can be found in patent US5006528A, “Carbostyril derivatives” (Otsuka Pharmaceutical Co., Ltd., priority 1988, dated 1991).

The subject of one assay is dopaminergic receptor. The experiment in a line: Anti-apomorphine activity in mouse. Conditions: for ED50: Mus musculus, po, 1 h, read-out: Anti-apomorphine activity (ED50 mg/kg) (A); for (B)/(A): ratio of anti-epinephrine ED50 (B) to anti-apomorphine ED50 (A).
The subject of another assay is α-blocking activity. The experiment in a line: Anti-epinephrine lethal activity in mouse. It counts as in vivo. Conditions: read-out: Anti-epinephrine activity (ED50 mg/kg) (B).
The mark [1] stands for this setting: mouse, oral, 1 hour before lethal dose (1.5 mg/kg) of epinephrine intravenously, survival at 4 hours.

Like-named read-outs stand apart in the source and are kept apart here. A value given as a limit tells only on which side of the number the result lay.

On to `CCOc1ccccc1N1CCN(CCCCOc2ccc3ccc(=O)[nH]c3c2)CC1` [Test compound 11], for which, in the assay on dopaminergic receptor, the ED50 came out at 0.12 mg/kg and the “(B)/(A)” value stood at 31.6. In addition, the ED50 in the assay with α-blocking activity (setting [1]) turned out to be 3.8 mg/kg.

Turning to `Cc1c(N2CCN(CCCCOc3ccc4c(c3)NC(=O)CC4)CC2)cccc1[N+](=O)[O-]` [Test compound 2], in the assay with dopaminergic receptor, the ED50 is 0.3 mg/kg and the “(B)/(A)” value is greater than 426.7. Further, the ED50 in the assay with α-blocking activity (setting [1]) was greater than 128 mg/kg.

On to `O=C1CCc2ccc(OCCCCN3CCN(c4cccc(Cl)c4Cl)CC3)cc2N1` [Test compound 1, 7-{4-[4-(2,3-dichlorophenyl)-1-piperazinyl]butoxy}-3,4-dihydrocarbostyril], for which, in the assay with dopaminergic receptor, the ED50 was 0.18 mg/kg and the “(B)/(A)” value is greater than 711. For the same compound, in the assay on α-blocking activity (Mus musculus, po, 4 h), the ED50 is greater than 128 mg/kg.

For the compound `COc1ccccc1N1CCN(CCCCOc2ccc3c(c2)NC(=O)CC3)CC1` [Test compound 8], the ED50 amounted to 0.2 mg/kg in the assay with dopaminergic receptor and 2.5 mg/kg in the assay with α-blocking activity (setting [1]). Besides, the “(B)/(A)” value in the assay with dopaminergic receptor was 12.5.

Take `O=C1CCc2ccc(OCCCCN3CCN(c4cc(Cl)cc(Cl)c4)CC3)cc2N1` [Test compound 5]: in the assay on dopaminergic receptor, the ED50 was 0.5 mg/kg and the “(B)/(A)” value is listed as greater than 256. Further, in the assay with α-blocking activity (setting [1]), the ED50 is greater than 128 mg/kg.

`O=C1CCc2ccc(OCCCCN3CCN(c4cc(Cl)cc(Cl)c4Cl)CC3)cc2N1` [Test compound 7]: in the assay with dopaminergic receptor, the ED50 was found to be 0.4 mg/kg and the “(B)/(A)” value is greater than 320. The ED50 with α-blocking activity (setting [1]) was greater than 128 mg/kg.

In the case of `Cc1cccc(N2CCN(CCCCOc3ccc4c(c3)NC(=O)CC4)CC2)c1Cl` [Test compound 3], in the assay on dopaminergic receptor, the ED50 worked out at 0.4 mg/kg and the “(B)/(A)” value is greater than 160. Moreover, the ED50 with α-blocking activity (setting [1]) is greater than 64 mg/kg.

In the case of `O=c1ccc2ccc(OCCCCN3CCN(c4cccc(Cl)c4Cl)CC3)cc2[nH]1` [Test compound 10], in the assay on dopaminergic receptor, the ED50 is 0.36 mg/kg and the “(B)/(A)” value was greater than 355. In addition, the ED50 in the assay with α-blocking activity (setting [1]) is greater than 128 mg/kg.

In the case of `Cc1cccc(N2CCN(CCCCOc3ccc4c(c3)NC(=O)CC4)CC2)c1Br` [Test compound 4], the ED50 with dopaminergic receptor was 0.4 mg/kg; in the assay on α-blocking activity (setting [1]), greater than 64 mg/kg. Moreover, the “(B)/(A)” value with dopaminergic receptor is greater than 160.

`O=C1CCc2ccc(OCCCCN3CCN(c4cccc(Br)c4Br)CC3)cc2N1` [Test compound 9]: in the assay with dopaminergic receptor, the ED50 was found to be 0.6 mg/kg and the “(B)/(A)” value is greater than 426.7. Also, the ED50 with α-blocking activity (setting [1]) was greater than 256 mg/kg.
